What all share (experiment): NCI anticancer screen, dose series, 48 h
Assay [1] deals with KM12 colon.
Assay [2] concerns PC-3 prostate.
Assay [3] deals with MALME-3M melanoma.
The test system of assay [4] is SNB-19 CNS.
Assay [5] deals with SK-MEL-2 melanoma.
Assay [6] relates to SK-OV-3 ovarian.
For assay [7], the system named is K-562 leukemia.
Assay [8] has as its system HOP-62 NSCLC.
The test system of assay [9] is RPMI-8226 leukemia.
Assay [10] concerns U251 CNS.
In assay [11] the test system is DU-145 prostate.
Assay [12] concerns HOP-92 NSCLC.
Assay [13] relates to SNB-75 CNS.
In assay [14] the test system is UACC-257 melanoma.
In assay [15] the test system is ACHN renal.
Assay [16] relates to SN12C renal.
The test system of assay [17] is HT29 colon.
Assay [18] deals with RXF 393 renal.

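Where inhibition never reached the appropriate level, the endpoint shown equals the highest concentration tested. Otherwise, values were interpolated linearly from a five-concentration, 48-hour dose response in 96-well plates. TGI: total growth inhibition.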 A value given as a limit tells only on which side of the number the result lay.

Consider `c1ccc(N=C(Nc2ccccc2)N2CCCC2)cc1`, for which the TGI in assay [1], in [2], in assay [3], in [4], in assay [5] and in [6] was above 100 µM throughout. The TGI in assay [7], in assay [8], in assay [9], in assay [10], in [11] and in assay [12] was above 100 µM throughout. The TGI in [13], in assay [14], in [15], in assay [16] and in assay [17] was above 100 µM throughout.
On to `Cc1ccc(N2C(=O)C=C(C3=C(O)C(=O)N(c4ccc(C)cc4)C3=O)C2=O)cc1`, for which the TGI in assay [2], in assay [3], in [4], in assay [6], in assay [7] and in [8] was above 100 µM each time. Further, the TGI in assay [9], in assay [10], in assay [11], in assay [12], in assay [13] and in [14] was above 100 µM each time. The TGI in [15], in assay [16] and in assay [17] was above 100 µM throughout.
On to `CC1=NN(c2cccc(Cl)c2)C2(SCC(=O)N2c2nc3ccccc3s2)/C1=C\c1ccc(N(C)C)cc1` (stereo not drawn), for which the TGI is above 100 µM in assay [1]; above 100 µM in assay [2]; 57.5 µM in assay [5]; 39.6 µM in [6]; above 100 µM in assay [7]; 48.6 µM in assay [8]. In addition, the TGI in [9] was above 100 µM; in assay [10], above 100 µM; in assay [11], above 100 µM; in [18], 44.8 µM; in assay [12], 79.9 µM; in assay [14], above 100 µM. The TGI in assay [15] was 84.1 µM; in [17] it was above 100 µM.
Regarding `O=C(CC(C(=O)c1cccs1)c1cccs1)c1ccsc1` (stereo not drawn), the TGI in [1], in [2], in [3], in [4], in assay [5] and in assay [6] was above 100 µM in each case. Also, the TGI in [7], in assay [8], in [9], in assay [10], in [11] and in [13] was above 100 µM throughout. Also, the TGI in assay [14], in assay [15], in assay [16] and in assay [17] was above 100 µM each time.
Take `CCOP(=O)(OCC)/C(=C/NC(=S)c1ccncc1)C(=O)OC`: the TGI in assay [1], in assay [2], in [4], in [5], in assay [6] and in [7] was above 100 µM in each case. For the same molecule, the TGI in [8], in assay [9], in [10], in assay [11], in [18] and in assay [12] was above 100 µM throughout. For the same molecule, the TGI in assay [14], in assay [15], in [16] and in assay [17] was above 100 µM in each case.
Turning to `COc1cc(/C=C2\N=C(c3ccccc3)N(c3nc4cc(C)c(C)cc4s3)C2=O)ccc1O`, the TGI in assay [1], in assay [2], in assay [4], in [5], in [6] and in assay [7] was above 100 µM each time. The TGI is above 100 µM in [8]; above 100 µM in assay [9]; above 100 µM in assay [10]; above 100 µM in assay [11]; 82.2 µM in [18]; above 100 µM in [12]. Moreover, the TGI was above 100 µM in assay [13]; above 100 µM in assay [14]; above 100 µM in assay [15]; 78.9 µM in assay [16]; 99.1 µM in assay [17].
As for `O=C1/C(=C/c2ccc(OC(=O)c3ccccc3)cc2)CCC/C1=C\c1ccc(OC(=O)c2ccccc2)cc1`, the TGI in [1], in [2], in assay [4], in assay [5], in assay [8] and in assay [9] was above 100 µM in each case. Further, the TGI in assay [10], in assay [11], in assay [12], in [13], in assay [14] and in assay [15] was above 100 µM throughout. Also, the TGI in assay [16] and in assay [17] was above 100 µM in each case.
As to `CCCCCCCCCCCCN1[C@H]2CCC[C@H]2C(O)[C@@H]2CCC[C@@H]21` (stereo partly drawn), the TGI in assay [1], in [2], in [4], in assay [5], in assay [6] and in assay [7] was above 100 µM in each case. Besides, the TGI in assay [8], in assay [9], in assay [10], in assay [11], in [18] and in assay [12] was above 100 µM in each case. Also, the TGI in [13], in [14], in assay [15], in assay [16] and in assay [17] was above 100 µM in each case.
`COC(=O)[C@]12CC[C@H]3CC[C@H]([C@H]31)[C@H](c1ccccc1)N2`: the TGI in assay [1] is 39.8 µM; in assay [2] it was 38.7 µM; in [4] it was 47.3 µM; in [5], 28.8 µM; in assay [6], 77.7 µM; in [7], 53.4 µM. The TGI in assay [8] was determined as 33.3 µM; in assay [9], 47.9 µM; in assay [10], 31.4 µM; in assay [11], 47.8 µM; in [18] it was 30.9 µM; in assay [12] it was 30.3 µM. For the same molecule, the TGI in assay [13] is 58.1 µM; in assay [14] it was 29.6 µM; in assay [15], 31.4 µM; in [16] it was 29.5 µM; in assay [17], 29.5 µM.

(Values after PubChem BioAssay (NCI).)
